Measurements taken from publication PMC3345088 (Journal of Immunology (Baltimore, Md. : 1950), 2012).

Tested on: purified HLA class II DR, DP and DQ molecules
Experiment: MHC-peptide binding assays
Set-up: species or system human
Settings: allele as in inferred restricting HLA allele column

Row | Substance | Binding to the allelic variant shared by all responders
1 | ESAT-6 73–87: 15-mer peptide epitope, residues 73–87 of ESAT-6 (Rv3875) (ARTISEAGQAMASTE; UniProt P9WNK7 73-87, looked up, fragment) | high affinity
2 | CFP10 52–66: 15-mer peptide epitope, residues 52–66 of CFP10 (Rv3874) | high affinity
